Source: ChEMBL document CHEMBL4359852, “Design, synthesis and biological evaluation of novel 5-(piperazin-1-yl)quinolin-2(1H)-one derivatives as potential chitin synthase inhibitors and antifungal agents” (Eur J Med Chem, 2019)
Converted amounts (≈) assume the structure as drawn.

Key:
Saccharomyces cerevisiae = test: Inhibition of Saccharomyces cerevisiae CGMCC 2.145 chitin synthase using GlcNAc and UDP-GlcNAc as substrate at 300 ug/ml incubated for 60 mins by microplate reader analysis relative to control
[1] = Inhibition of Saccharomyces cerevisiae CGMCC 2.145 chitin synthase using GlcNAc and UDP-GlcNAc as substrate incubated for 60 mins by microplate reader analysis
Candida albicans = test: Antifungal activity against Candida albicans ATCC 76615 assessed as reduction in fungal cell growth incubated for 48 hrs by two-fold serial dilution method; format: functional; settings: ATCC 76615, 48 h
Cryptococcus neoformans = test: Antifungal activity against Cryptococcus neoformans ATCC 32719 assessed as reduction in fungal cell growth incubated for 48 hrs by two-fold serial dilution method; format: functional; settings: ATCC 32719, 48 h
Aspergillus flavus = test: Antifungal activity against Aspergillus flavus ATCC 16870 assessed as reduction in fungal cell growth incubated for 48 hrs by two-fold serial dilution method; format: functional; settings: ATCC 16870, 48 h
Pseudomonas aeruginosa = test: Antibacterial activity against Pseudomonas aeruginosa ATCC 9027 assessed as reduction in bacterial cell growth incubated for overnight by two-fold serial dilution method; format: functional
Staphylococcus aureus [2] = test: Antibacterial activity against Staphylococcus aureus ATCC 25923 assessed as reduction in bacterial cell growth incubated for overnight by two-fold serial dilution method; format: functional
Staphylococcus aureus [3] = test: Antibacterial activity against methicillin resistant Staphylococcus aureus N 315 assessed as reduction in bacterial cell growth incubated for overnight by two-fold serial dilution method; format: functional
Bacillus subtilis = test: Antibacterial activity against Bacillus subtilis ATCC 6633 assessed as reduction in bacterial cell growth incubated for overnight by two-fold serial dilution method; format: functional
Proteus vulgaris = test: Antibacterial activity against Bacillus proteus ATCC 8427 assessed as reduction in bacterial cell growth incubated for overnight by two-fold serial dilution method; format: functional
Escherichia coli = test: Antibacterial activity against Escherichia coli JM109 assessed as reduction in bacterial cell growth incubated for overnight by two-fold serial dilution method; format: functional

SMILES	inhibition (Saccharomyces cerevisiae) [%]	IC50 [1] [µM]	MIC (Candida albicans) [µg/mL]	MIC (Cryptococcus neoformans) [µg/mL]	MIC (Aspergillus flavus) [µg/mL]	MIC (Pseudomonas aeruginosa) [µg/mL]	MIC (Staphylococcus aureus [2]) [µg/mL]	MIC (Staphylococcus aureus [3]) [µg/mL]	MIC (Bacillus subtilis) [µg/mL]	MIC (Proteus vulgaris) [µg/mL]	MIC (Escherichia coli) [µg/mL]
NC(=O)OC[C@H](O)[C@@H](O)[C@H](N)C(=O)N[C@H](C(=O)O)[C@H]1O[C@@H](n2cc(CO)c(=O)[nH]c2=O)[C@H](O)[C@@H]1O [POLYOXIN B]	85.1	180	32 (≈ 63.1 µM)	8 (≈ 15.8 µM)	32 (≈ 63.1 µM)						
Cl.O=C1CCc2c(cccc2N2CCN(CC(O)CNc3ccc(Cl)cc3)CC2)N1 (racemic)	59.3	360	32	256	256	128	64	64	64	128	128
Cl.O=C1CCc2c(cccc2N2CCN(CC(O)Cn3ccnc3)CC2)N1 (racemic)	53.3	470	64	256	256	128	64	128	64	128	128
Cl.O=C1CCc2c(cccc2N2CCN(CC(O)CNc3ccccc3Cl)CC2)N1 (racemic)	52.4	470	32	512	128	256	64	128	128	64	128
COc1ccc(NC[C@H](O)CN2CCN(c3cccc4c3CCC(=O)N4)CC2)cc1.Cl		120	32	256	128	128	64	128	256	256	32
Cl.O=C1CCc2c(cccc2N2CCN(CC(O)CNc3ccccc3)CC2)N1 (racemic)	62.7	150	64	128	128	256	128	128	128	128	256
CCCCNCC(O)CN1CCN(c2cccc3c2CCC(=O)N3)CC1.Cl (racemic)	63.7	370	64	256	256	256	256	128	256	256	256
Cl.O=C1CCc2c(cccc2N2CCN(CC(O)CNc3ccc(Br)cc3)CC2)N1 (racemic)	55.4	380	64	256	64	256	64	128	64	128	256
COc1ccc(NCC(O)CN2CCN(c3cccc4c3CCC(=O)N4)CC2)cc1.Cl (racemic)	84.9	100	32	128	128	128	64	128	128	256	64
